For 93 molecules, melting point results are on record in a melting point compilation (Tetko et al.; mined from patent text by program, amines drawn as free bases though some values may be those of a salt).

Molecules are shown by their SMILES.

A word on the melting point: it is the temperature of the solid-liquid transition. On to `COC(=O)C=Cc1cc(F)ccc1C(=O)O`, for which the melting point was 151 to 153 °C.
Turning to `COc1ccc(N2CCN(n3c(C)n[nH]c3=O)CC2)cc1`, the melting point amounted to 264 °C.
As for `COC(=O)[C@H](c1ccccc1Cl)N1CCc2sc(OC(C)=O)cc2C1`, the melting point was 73 to 75 °C.
As to `Cn1c(CC#N)ccc1C(=O)c1ccc(N)cc1`, the melting point fell in the range of 137 to 142 °C.
Turning to `O=C(CCCCCCOc1ccccc1)c1nnc(CO)o1`, the melting point fell in the range of 83 to 85 °C.
The value for `O=S(Cc1ccccc1)c1nc2cnccc2[nH]1` (stereo not drawn) was 190 to 193 °C; that for `Nc1sc(-c2ccc(Cl)s2)c(CN(C2CCCCC2)C2CCCCC2)c1C(=O)c1ccc(Cl)cc1` was 195 to 197 °C; that for `COc1ccc2c(c1)CCC1CCNC(=O)C(CC3(C)OCCO3)=C21` (stereo not drawn) was 192 to 194 °C.
In the case of `O=[N+]([O-])c1oc2ccc(-c3nnn[nH]3)cc2c1-c1ccccc1`, the melting point lay within 215 to 217 °C.
Molecule `N[C@@H](Cc1ccc(Cl)c(OC(F)(F)C(F)F)c1)[C@H](O)c1ccc(F)cc1` (racemic) yielded a melting point of 109 to 110 °C.
For `CC(C)(C)c1ccc(S(=O)(=O)C=CSc2ccccc2)cc1`, the melting point is 258 °C.
For the molecule `COc1cccc(-c2c(=O)[nH]c3cc(Cl)c(Cl)cc3[n+]2[O-])c1`, the melting point lay within 238 to 240 °C.
In turn, `Oc1ccc(C2CC(c3ccccc3)=NN2c2ccccc2)cc1` (stereo not drawn) gave a melting point of 144 to 145 °C.
The molecule `O=C(c1cccs1)c1cccc2c1CCC2C(=O)O` (stereo not drawn) returned a melting point of 122 to 124 °C.
Regarding `O=C1CNC(c2cc(-c3ccsc3)cc(-c3ccsc3)c2)=NN1CC(F)(F)F`, the melting point fell in the range of 180 to 182 °C.
For `CS(=O)(=O)c1cc(S(N)(=O)=O)sc1CO`, the melting point is 175 to 178 °C.
On to `Cc1nnc(-c2ccc3occ(-c4cccc(Cl)c4)c3c2)o1`, for which the melting point was 145 to 146 °C.
The figure for `CCCc1c(C(=O)O)c(=O)cc(-c2ccccc2)n1C` is 150 °C.
Molecule `CC(=O)OCC(N=O)C(C)(C)Cl` (stereo not drawn) returned a melting point of 117 to 119 °C.
Regarding `O=C(Nc1ccc2c(c1)CCC2)C(=O)N1CCC(Cc2ccccc2)CC1`, the melting point lay in the range of 106 to 109 °C.
Molecule `ON=C1CCn2c1cc1ccccc12` had a melting point greater than 220 °C.
The figure for `S=C1NC(c2ccc(Cl)cc2)c2ccccc2C1CCN1CCOCC1` (stereo not drawn) is 228 to 231 °C; for `Cc1csc2nc(COc3ccccc3)cn12` it is 190 to 192 °C; for `Cc1ccc(C(=O)Nc2cc3c(cc2N)C(C)(C)CCC3(C)C)cc1` it is 180 °C.
Regarding `COC(=O)C1=C(C)Nc2ccccc2SC1c1ccc(OC)cc1` (stereo not drawn), the melting point was in the range of 107 to 110 °C.
The value for `CCCCCCCCCCCCCCCC(=O)Nc1ccc(O)c(C(C)=O)c1` was 120 to 122 °C; that for `O=C(NCCCCN1CCC(c2ccc3c(c2)CCCC3)CC1)c1ccc(NC(=O)c2ccc(Cl)cc2)cc1` was 285 °C; that for `Cc1nc(CSc2cccc(Cl)c2Cl)no1` was 66 to 68 °C.
The figure for `C=C(C)C(=O)Oc1ccc2c(c1)C(=O)c1ccccc1C2=O` is 184 to 186 °C.
For `CCNC(=N)NC(=O)Cc1ccccc1OC`, the melting point lay within 127 to 128 °C.
The value for `CCOCC1=C(C(=O)OCC)C(c2ccccc2Cl)C(C(=O)OCC)=C(C)N1` (stereo not drawn) was 115 °C; that for `COc1cc(C(=O)Nc2nnn[nH]2)nc(-c2ccc(N(C)C)cc2)c1` was 261 to 263 °C; that for `O=C(Cn1c(-c2ccc(F)cc2)nc2cccnc21)OCCO` was 166 to 168 °C.
`Nc1nc2c(c(Nc3ccccc3)n1)-c1ccccc1C2` came in with a melting point of 215 to 217 °C.
`CC1=CC(O)C(OC(=O)c2ccco2)C(C)(C)CC1=O` (stereo not drawn) yielded a melting point of 102 to 104 °C.
The value for `Cc1nc(-c2ccc(N3CC(C(=O)O)OC3=O)cc2)no1` (stereo not drawn) was 215 to 218 °C.
`C=CCOn1c(=O)[nH]c2cc(F)c(F)cc2c1=O` had a melting point of 220 to 221 °C.
Regarding `CCCc1nn(C)c2c1N=C(c1cc(CCC(=O)O)ccc1OCC)NC2`, the melting point lay in the range of 165 to 167 °C.
The value for `O=c1ccn(CCO)c(C(O)c2ccc(Br)cc2)c1O` (stereo not drawn) was 189 to 193 °C; that for `O=Nc1c(-c2ccccc2)nc2ccccn12` was 165 to 167 °C.
As to `NC(=O)N(O)Cc1sccc1Sc1ccc(F)cc1`, the melting point was in the range of 101 to 103 °C.
`CCOC(=O)c1cn(CCOC(C)=O)c2c(F)c(F)c(F)c(C)c2c1=O` had a melting point of 192 to 193 °C.
The value for `CCc1c(-c2ccc(OCc3ccccc3)cc2)c2c(COCCCCCCCN3CCCCC3)cc3c(OCc4ccccc4)ccc1n32` was 86 to 90 °C; that for `C=CCOC(=O)C=CC(=O)NC(N)=O` was 108 to 110 °C; that for `Cc1ccccc1OCc1ccccc1I` was 106 to 108 °C.
On to `COC(=O)NC(Cc1c[nH]c2ccccc12)C(=O)OCc1cc(C)cc(C)c1` (stereo not drawn), for which the melting point was 128 to 129 °C.
The value for `CCCCOC(=O)c1ccc(N2CCN(c3ccc(CC(C)O)cc3)CC2)cc1` (stereo not drawn) was 85 to 86 °C; that for `C=C(Br)n1ccnc1[N+](=O)[O-]` was 80 to 82 °C; that for `C=C(OCC)c1c(C)nc(C)nc1NCc1ccc(Br)cc1` was 111 to 113 °C.
As to `Cc1ccc(-c2cc(CN3C(=O)c4ccccc4C3=O)c(=O)n(CC(C)C)n2)cc1`, the melting point is 222 to 224 °C.
Molecule `O=C(CCNC(=O)OCc1ccccc1)NCCSC(=O)c1ccccc1` came in with a melting point of 115 to 118 °C.
Take `CC(=O)Nc1nc(CCc2ccc(CON)cc2)cs1`: the melting point came to 130 °C.
`CCCCC=NNC1=NCCc2ccccc21`: the melting point was 147 to 148 °C.
The value for `O=C(O)Cc1ccc(NC(=O)C(COC2CCCCO2)NS(=O)(=O)c2ccc(Cl)c([N+](=O)[O-])c2)cc1` (racemic) was 131 to 140 °C; that for `Cc1sc(S(C)=O)nc1-c1ccccc1` (stereo not drawn) was 96 to 97 °C; that for `CC(C)OC(=O)Nc1ccc(NC(=O)CBr)c([N+](=O)[O-])c1` was 195 to 197 °C.
`COC1OC2OC3(C)CCC4C(C)CCC(C1C)C24OO3` (stereo not drawn) gave a melting point of 73 to 74.5 °C.
`COc1ccc(Cc2ccc(C(=O)O)cc2)cc1`: the melting point fell in the range of 152 to 153 °C.
The value for `C#CCNC(=O)C(C)(COc1ccc(OCC)cc1)NS(=O)(=O)Cc1ccccc1` (stereo not drawn) was 155 to 156 °C; that for `CN(C(=O)c1cccc(S(=O)(=O)N(C)c2ccc(Br)cc2)c1)c1ccc(Cl)cc1F` was 127 to 128 °C.
Molecule `O=C(O)COc1cccc2c1CC(SCc1ccccc1)c1sc(-c3ccc4ccccc4c3)nc1-2` (stereo not drawn) came in with a melting point of 118 to 121 °C.
With `CCOc1ccc2[nH]c(=O)n(C3CCCC3)c2c1`, the melting point came to 75 °C.
In turn, `COc1ccc(CNc2cc(Cn3c(Oc4cc(C)cc(C)c4)c(C(C)C)c(=O)[nH]c3=O)cc(Cl)n2)cc1` displayed a melting point of 223 to 225 °C.
Take `N#Cc1cccc2c1C(=O)OC2O` (stereo not drawn): the melting point was 138 to 140 °C.
For the molecule `COC1C(O)C(CO)OC1n1ccc(N)nc1=O` (stereo not drawn), the melting point fell in the range of 252 to 254 °C.
In turn, `COC(=O)c1cc(SCc2ccsc2)c(Oc2ccccc2)c(S(N)(=O)=O)c1` displayed a melting point of 148 to 149 °C.
Molecule `O=C(c1ccccc1C(c1ccc(O)cc1)c1ccc(O)cc1)N1CC2CCC(CC2)C1` showed a melting point of 164 to 166 °C.
As for `O=S(c1ccccc1)c1ccc(Cc2csc(Br)n2)cc1` (stereo not drawn), the melting point was 82 °C.
Consider `Cc1ccccc1CNC(=O)c1ccc2cnccc2n1`, for which the melting point lay in the range of 120 to 121 °C.
For the molecule `CN(C)C1CCC2(CC1)Nc1cc(Cl)c(S(N)(=O)=O)cc1S(=O)(=O)N2` (stereo not drawn), the melting point came out at 255 °C.
Molecule `CCCc1c(C#N)c2ccc(C(=O)OC)cc2n1Cc1ccccc1Cl` had a melting point of 132 to 133 °C.
As to `O=[N+]([O-])c1cc([N+](=O)[O-])c(Nc2c(Br)cc(Cl)c3ccccc23)c(C(F)(F)F)c1`, the melting point was 207 to 209 °C.
The figure for `COc1cc(O)c(C=O)cc1OC` is 104 to 105 °C; for `COC(=N)Nc1nc(OC)cc(OC)n1` it is 91 to 95 °C; for `Cc1c(C)c2c(c(C)c1O)CCC(C)(C(=O)NN(C)C)O2` (stereo not drawn) it is 145 to 146 °C.
Molecule `CN(CC(=O)Nc1ccccc1)C(=O)CN1CCCC1=O` gave a melting point of 145 to 146 °C.
Consider `O=C(O)c1ccc(C#Cc2ccc(OCCCO)c(C34CC5CC(CC(C5)C3)C4)c2)cc1`, for which the melting point was in the range of 290 to 292 °C.
As to `CC(C)(C)S(=O)(=O)c1ccc(C(=O)O)c(Cl)c1`, the melting point is 181 to 182 °C.
Molecule `CCc1c(CCC(=O)O)c[nH]c1C=O` gave a melting point of 128 to 134 °C.
`COc1cc(CC(=O)NCCOc2ccc(C)c(C)c2)ccc1OCCN`: the melting point is 95 to 97 °C.
The value for `COc1ccc(N2C(=O)[C@H](O)[C@H]2c2ccco2)cc1` was 149 to 152 °C; that for `COc1cc(C(=O)O)ccc1Cn1nc(O)c2ccc(NC(=O)CC3CCCC3)cc21` was 269 to 272 °C; that for `COC(=O)NC(C)(C)c1ccc(CBr)cc1` was 74 to 76 °C.
For the molecule `Cc1sc2ncc(C(=O)CC(O)c3ccccc3)n2c1C` (stereo not drawn), the melting point amounted to 113 °C.
On to `COc1cccc(CBr)c1CBr`, for which the melting point was in the range of 78 to 79 °C.
As to `COC(=O)C(CNC(=O)c1ccccc1)NC(=O)C(C)(C)NC(=O)C(SC(C)=O)C(C)C` (stereo not drawn), the melting point fell in the range of 48 to 54 °C.
Turning to `Cc1c(C(=O)C(C)Br)ccn1S(=O)(=O)c1ccccc1` (stereo not drawn), the melting point lay in the range of 99 to 103 °C.
The figure for `Nc1ccccc1CN(N)c1ccc(Cl)cc1` is 83 to 87 °C; for `Cc1cccc(C=CC=C2SC(=S)N(CC(=O)O)C2=O)c1` it is 220 to 226 °C; for `Cc1cc2c(C(C)(C)C)c(O)ccc2o1` it is 49.9 °C.
`C[C@H]1COc2c(N3C[C@@H](N)[C@@H](C4CC4)C3)c(F)cc3c(=O)c(C(=O)O)cn1c23` registered a melting point of 218 to 220 °C.
As for `CCOCCn1c(N2CCCN(CCC3(c4ccc(Cl)cc4)CCN(C(=O)c4cc(OC)c(OC)c(OC)c4)C3)CC2)nc2ccccc21` (stereo not drawn), the melting point lay in the range of 74 to 81 °C.
The figure for `C=C(C)COc1ccc(NC(C)=O)c(C)c1C` is 154 to 156 °C.
